Legend:
HRV type 1A = experiment: Inhibition of viral cytopathic effect (CPE), visual scoring or neutral red, HRV type 1A in MRC-5 cells; assay type: cell-based, human rhinovirus; conditions: for Activity on Rhinovirus Type 1A EC50: HRV type 1A in MRC-5 cells, CPE inhibition; for Activity on Rhinovirus Type 1A SI: selectivity index = CC50 or MTC divided by EC50, HRV type 1A, MRC-5 cells
HRV type 2 = experiment: Inhibition of viral cytopathic effect (CPE), visual scoring or neutral red, HRV type 2 in KB cells; assay type: cell-based, human rhinovirus; conditions: for Activity on Rhinovirus Type 2 EC50: HRV type 2 in KB cells, CPE inhibition; for Activity on Rhinovirus Type 2 SI: selectivity index = CC50 or MTC divided by EC50, HRV type 2, KB cells
Rhinovirus Type 14 = assay type: cell-based, human rhinovirus; conditions: HRV-14
[1] = test system: human embryo lung (MRC-5) cells; experiment: Cytotoxicity (CC50 or MTC) in uninfected MRC-5 cells; conditions: unit not given

Structure (SMILES)	Activity on Rhinovirus Type 1A EC50 (HRV type 1A)	Activity on Rhinovirus Type 1A SI (HRV type 1A)	Activity on Rhinovirus Type 2 EC50 (HRV type 2)	Activity on Rhinovirus Type 2 SI (HRV type 2)	Activity on Rhinovirus Type 14 EC50 (Rhinovirus Type 14)	Activity on Rhinovirus Type 1A MTC [1]
CCON=Cc1ccc(OCCC2CCN(c3ccc(Cl)nn3)CC2)c(OC)c1 [Compound 5]	<0.0032 mg/L	>312	0.009 mg/L	>111	0.0077 mg/L	>1
CON=Cc1ccc(OCCC2CCN(c3ccc(C)nn3)CC2)cc1 [Compound 7]	<0.0032 mg/L	>312	0.15 mg/L	>7	0.0068 mg/L	>1
CON=Cc1ccc(OCCC2CCN(c3ccc(Cl)nn3)CC2)cc1 [Compound 8]	<0.0032 mg/L	>312	0.03 mg/L	>33	0.0072 mg/L	>1
CCCON=Cc1ccc(OCCC2CCN(c3ccc(Cl)nn3)CC2)cc1 [Compound 11]	<0.0032 mg/L	>312	0.004 mg/L	>250	0.0077 mg/L	>1
C=CCON=Cc1ccc(OCCC2CCN(c3ccc(Cl)nn3)CC2)cc1 [Compound 13]	<0.0032 mg/L	>312	0.006 mg/L	83	0.0078 mg/L	>1
CCON=C(CC)c1ccc(OCCC2CCN(c3ccc(Cl)nn3)CC2)cc1 [Compound 34]	0.627 mg/L	>1.59	0.7 mg/L	>1		>1
CCON=Cc1ccc(OCCC2CCN(c3ccc(Cl)nn3)CC2)c([N+](=O)[O-])c1 [Compound 36]	0.009 mg/L	99.4	0.03 mg/L	>33		0.89
CCON=Cc1ccc(OCCC2CCN(c3ccc(Cl)nn3)CC2)cc1O [Compound 37]	0.010 mg/L	>96.0	0.048 mg/L	>21		>1
C=CCON=Cc1cc(O)cc(OCCC2CCN(c3ccc(Cl)nn3)CC2)c1 [Compound 40]	0.583 mg/L	>1.72	0.4 mg/L	>3		>1
CCON=Cc1cccc(OCCC2CCN(c3ccc(Cl)nn3)CC2)c1 [Compound 41]	0.016 mg/L	>63.5	<0.001 mg/L	>1000		>1
C=CCON=Cc1ccc(OCCC2CCN(c3ccc(Cl)nn3)CC2)c(C)c1 [Compound 43]	0.006 mg/L	>170	0.01 mg/L	>100		>1
CCON=Cc1cc(C)c(OCCC2CCN(c3ccc(Cl)nn3)CC2)c(C)c1 [Compound 45]	0.029 mg/L	>34.0	0.03 mg/L	>32		>1
CCON=Cc1ccc(OCCC2CCN(c3ccc(C)nn3)CC2)c(C)c1 [Compound 51]	<0.003 mg/L	>207.3			0.0093 mg/L	0.663
CON=Cc1ccc(OCCC2CCN(c3ccc(C)nn3)CC2)c(C)c1 [Compound 52]	<0.003 mg/L	>312			0.0054 mg/L	>1
CCON=Cc1ccc(OCCC2CCN(c3ccc(Cl)nn3)CC2)cc1 [Compound 57]	0.001 mg/L	>56.3	0.00025 mg/L	>400		>0.1
CCON=Cc1ccc(OCCCc2cc(C)no2)cc1 [Compound 108]	>1 mg/L		0.6 mg/L	>1		>1
CCON=Cc1ccc(OCCC2CCN(c3ccc(C)nn3)CC2)c(O)c1 [Compound 146]	0.051 mg/L	>19			0.0084 mg/L	>1
CCON=Cc1ccc(OCCC2CCN(c3nnc(C(F)(F)F)s3)CC2)cc1 [Compound 154]					0.0514 mg/L	
CCON=Cc1ccc(OCCC2CCN(c3cnc(Cl)cn3)CC2)cc1 [Compound 160]					0.0502 mg/L	
CCO/N=C/c1c(C)cc(OCCC2CCN(c3ccc(C)nn3)CC2)cc1C [Compound 185]					0.0697 mg/L	

Structure (SMILES)	Activity on Rhinovirus Type 1A EC50 (HRV type 1A)	Activity on Rhinovirus Type 1A SI (HRV type 1A)	Activity on Rhinovirus Type 2 EC50 (HRV type 2)	Activity on Rhinovirus Type 2 SI (HRV type 2)	Activity on Rhinovirus Type 14 EC50 (Rhinovirus Type 14)	Activity on Rhinovirus Type 1A MTC [1]
CO/N=C/c1c(C)cc(OCCC2CCN(c3ccc(C)nn3)CC2)cc1C [Compound 186]					0.0349 mg/L	
CCO/N=C/c1ccc(OCCC2CCN(c3ccc(C)nn3)CC2)cc1OC [Compound 187]					0.0103 mg/L	
CCO/N=C/c1ccc(OCCC2CCN(c3ccc(C)nn3)CC2)cc1C [Compound 188]					0.0032 mg/L	
CO/N=C/c1ccc(OCCC2CCN(c3ccc(C)nn3)CC2)cc1C [Compound 189]					0.0011 mg/L	
CCON=Cc1cc(C)c(OCCC2CCN(c3ccc(C)nn3)CC2)cc1C [Compound 190]					0.0593 mg/L	
CON=Cc1cc(C)c(OCCC2CCN(c3ccc(C)nn3)CC2)cc1C [Compound 191]					0.0256 mg/L	
CCON=Cc1ccc(OCCC2CCN(c3ccc(C)nn3)CC2)c(C)c1C [Compound 192]					0.0258 mg/L	
CON=Cc1ccc(OCCC2CCN(c3ccc(C)nn3)CC2)c(C)c1C [Compound 193]					0.0308 mg/L	
CCO/N=C/c1ccc(OCCCCN(C)c2ccc(Cl)nn2)cc1 [Compound 195]					0.038 mg/L	
CCON=Cc1ccc(OCCC2CCN(c3cccc(C)n3)CC2)cc1 [Compound 196]					0.0424 mg/L	
CO/N=C/c1ccc(OCCC2CCN(c3cncc(Cl)n3)CC2)cc1 [Compound 199]					0.0402 mg/L	
CO/N=C/c1ccc(OCCC2CCN(c3nc4ccccc4o3)CC2)cc1 [Compound 200]					0.021 mg/L	
CCO/N=C/c1ccc(OCCC2CCN(c3nc4ccccc4o3)CC2)cc1 [Compound 201]					0.0261 mg/L	
CO/N=C/c1ccc(OCCC2CCN(c3nc(OC)nc(OC)n3)CC2)cc1 [Compound 202]					0.0593 mg/L	
CCO/N=C/c1ccc(OCCC2CCN(c3nc(OC)nc(OC)n3)CC2)cc1 [Compound 203]					0.060 mg/L	
CCc1cnc(N2CCC(CCOc3ccc(/C=N/OC)cc3)CC2)nc1 [Compound 204]					0.0554 mg/L	
CCO/N=C/c1ccc(OCCC2CCN(c3ncc(CC)cn3)CC2)cc1 [Compound 205]					0.0638 mg/L	
CO/N=C/c1ccc(OCCC2CCN(c3nc4ccccc4s3)CC2)cc1 [Compound 206]					0.0233 mg/L	
CCO/N=C/c1ccc(OCCCCCOc2ccc(Cl)nn2)cc1 [Compound 209]					0.0157 mg/L	
CCO/N=C/c1ccc(OCCC2CCN(c3cc(C)c(Cl)nn3)CC2)cc1 [Compound 212]					0.0107 mg/L	
